Assay results as given in paper PMC8336721 (ACS chemical neuroscience, 2020).
Values joined by “and” are separate entries in the source; they are usually repeats but may differ in a detail not shown here. Equal entries are not always repeated. Where two headings read alike, the source gives them in different places.

How the values were obtained:
MOR = MOR (Rattus norvegicus, UniProt P33535); experiment: [35S]GTPγS binding to membranes of CHO cells stably expressing the MOR; assay type: biochemical; conditions: for Maximal Effect, MOR: % of maximal [35S]GTPγS binding of reference full agonist DAMGO; for agonist type at the MOR: [35S]GTPγS binding
MOR, sequence (P33535 whole entry): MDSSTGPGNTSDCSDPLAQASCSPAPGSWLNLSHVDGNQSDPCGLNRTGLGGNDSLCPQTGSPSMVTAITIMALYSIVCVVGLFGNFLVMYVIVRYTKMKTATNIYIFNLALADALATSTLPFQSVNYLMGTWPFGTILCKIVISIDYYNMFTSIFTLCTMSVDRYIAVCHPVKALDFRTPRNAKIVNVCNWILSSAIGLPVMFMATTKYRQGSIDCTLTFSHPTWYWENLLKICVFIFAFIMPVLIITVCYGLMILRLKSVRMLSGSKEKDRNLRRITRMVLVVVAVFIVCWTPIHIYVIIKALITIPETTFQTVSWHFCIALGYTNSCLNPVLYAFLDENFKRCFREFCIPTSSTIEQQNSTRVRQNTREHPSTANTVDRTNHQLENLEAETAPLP

DOR = DOR (Mus musculus, UniProt P32300); experiment: [35S]GTPγS binding to membranes of CHO cells stably expressing the DOR; assay type: biochemical; conditions: for agonist type at the DOR: [35S]GTPγS binding, relatively low potency
DOR, sequence (P32300 whole entry): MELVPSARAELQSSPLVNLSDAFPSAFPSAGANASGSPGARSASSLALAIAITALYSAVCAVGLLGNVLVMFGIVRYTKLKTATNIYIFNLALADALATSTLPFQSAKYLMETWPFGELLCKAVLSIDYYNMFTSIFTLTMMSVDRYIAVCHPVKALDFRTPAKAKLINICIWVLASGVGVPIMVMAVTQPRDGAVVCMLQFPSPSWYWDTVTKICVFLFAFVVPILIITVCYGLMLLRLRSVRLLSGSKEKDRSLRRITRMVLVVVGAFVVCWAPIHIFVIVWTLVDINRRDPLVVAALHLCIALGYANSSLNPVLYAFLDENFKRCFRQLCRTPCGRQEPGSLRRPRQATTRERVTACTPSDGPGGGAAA

KOR [1] = molecular target: T1, KOR (Homo sapiens, UniProt P41145); experiment: [35S]GTPγS binding to membranes of CHO cells stably expressing the KOR; assay type: biochemical; conditions: for Maximal Effect, KOR: % of maximal [35S]GTPγS binding of reference full agonist (−)U50,488H
T1 sequence (P41145 whole entry): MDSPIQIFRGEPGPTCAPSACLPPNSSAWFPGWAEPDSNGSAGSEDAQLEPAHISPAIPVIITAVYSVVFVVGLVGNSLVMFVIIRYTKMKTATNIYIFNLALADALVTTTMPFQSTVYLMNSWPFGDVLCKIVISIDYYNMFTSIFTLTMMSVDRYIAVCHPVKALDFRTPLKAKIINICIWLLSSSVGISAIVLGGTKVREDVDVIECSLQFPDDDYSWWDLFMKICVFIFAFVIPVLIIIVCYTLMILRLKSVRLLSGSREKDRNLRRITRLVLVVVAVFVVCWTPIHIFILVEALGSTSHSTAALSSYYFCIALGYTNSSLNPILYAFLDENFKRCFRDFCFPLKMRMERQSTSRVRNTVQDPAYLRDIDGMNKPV

NOR = NOR (Homo sapiens, UniProt P41146); experiment: [35S]GTPγS binding to membranes of CHO cells stably expressing the NOR; assay type: biochemical; conditions: for agonist type at the NOR: [35S]GTPγS binding, relatively low potency
NOR, sequence (P41146 whole entry): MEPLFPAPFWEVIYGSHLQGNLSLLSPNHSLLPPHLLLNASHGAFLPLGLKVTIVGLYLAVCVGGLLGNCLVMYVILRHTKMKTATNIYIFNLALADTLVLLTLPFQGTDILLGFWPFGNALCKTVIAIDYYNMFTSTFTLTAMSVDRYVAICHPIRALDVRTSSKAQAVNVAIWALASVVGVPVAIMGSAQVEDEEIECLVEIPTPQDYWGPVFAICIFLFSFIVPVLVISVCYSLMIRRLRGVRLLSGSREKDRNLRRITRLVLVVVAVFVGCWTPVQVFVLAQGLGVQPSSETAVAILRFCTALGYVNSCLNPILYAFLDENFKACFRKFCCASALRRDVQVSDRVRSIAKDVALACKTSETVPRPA

KOR [2] = molecular target: T1, KOR; experiment: GloSensor cAMP assay; assay type: cell-based; conditions: for more potent than U50,488H, inhibition of cAMP accumulation: EC50 ratio vs U50,488H
KOR [3] = molecular target: T1, KOR; experiment: Tango assay; assay type: cell-based
mice [4] = experiment: Formalin test; assay type: in vivo; conditions: s.c. 5 min before formalin, licking time phase II
mice [5] = experiment: Compound 48/80 scratching test; assay type: in vivo
mice [6] = experiment: Rotarod test; assay type: in vivo
mice [7] = experiment: Novelty-induced locomotor activity; assay type: in vivo; conditions: 1, 3, 5 mg/kg s.c., 0–30 min post-injection
mice [8] = experiment: Conditioned place aversion
human KOR = experiment: G protein bias from RAi of GloSensor cAMP and Tango assays; assay type: cell-based; conditions: RAi−G divided by RAi−b, U50,488H as balanced agonist
mice [9] = conditions: late phase of the formalin test; cited from earlier work
mice [10] = conditions: cited from earlier work
mice [11] = conditions: cited from earlier work; remark: listed apart in the source
mice [12] = conditions: nalfurafine up to 20 μg/kg, U50,488 5 mg/kg; cited from earlier work
P-glycoprotein = conditions: cited from earlier work
mouse = mouse tail flick test; cited from earlier work

Compound: CN(C(=O)/C=C/c1ccoc1)[C@@H]1CC[C@@]2(O)[C@H]3Cc4cccc5c4[C@@]2(CCN3CC2CC2)[C@H]1O5 [42B]
- Maximal Effect, MOR (MOR): 49% and 48.87 ± 2.45%
- agonist type at the MOR (MOR): partial agonists
- Maximal Effect, DOR (DOR; % of maximal [35S]GTPγS binding of reference full agonist DPDPE): 134.7 ± 3.4%
- agonist type at the DOR (DOR): full agonism
- Maximal Effect, KOR (KOR [1]): 91% and 91.34 ± 1.15%
- agonist type at the KOR (KOR [1]; [35S]GTPγS binding): full agonists
- EC50 (KOR [1]; read-out: EC50, KOR, [35S]GTPγS binding, CHO membranes, 100 mM NaCl, mean ± SEM n=3–4): 25.6 ± 1.5 nM
- agonist type at the NOR (NOR): full agonism
- more potent than U50,488H, inhibition of cAMP accumulation (KOR [2]): ~ 2 fold
- GloSensor cAMP assay Emax (KOR [2]; maximal degree of inhibition, mean ± SEM n=3): 74.40±1.68%
- EC50 (KOR [2]; read-out: GloSensor cAMP assay EC50, inhibition of cAMP, mean ± SEM n=3): 0.82 ± 0.18 nM
- lower potency for β-arrestin recruitment than U50,488H (KOR [3]; EC50 ratio vs U50,488H): ~ 2 fold
- lower potency for β-arrestin recruitment than nalfurafine (KOR [3]; EC50 ratio vs nalfurafine): ~ 4 fold
- EC50 (KOR [3]; read-out: Tango assay EC50, β-arrestin2 recruitment, mean ± SEM n=3): 3.22 ± 0.42 nM
- Tango assay Emax (KOR [3]; β-arrestin2 recruitment, mean ± SEM n=3, % printed in b16 only): 116.8±1.0 %
- A50, formalin test (mice [4]): 2.08 mg/kg
- effect of norBNI pretreatment on anti-scratch activity (mice [5]; norBNI 20 mg/kg i.p. 20 h before 42B 3 mg/kg): eliminated the anti-scratch activity
- A50, compound 48/80-induced scratching (mice [5]; s.c. 20 min before compound 48/80, bouts counted 30 min, mice): 2.82 mg/kg
- rotarod performance at 1 mg/kg (mice [6]; 1 mg/kg, at 10 min): significant effect
- rotarod performance (mice [6]; 1, 3, 5 mg/kg s.c., tested 10, 20, 30, 40 min): dose-dependently caused performance impairment
- time of peak effect in rotarod test (mice [6]; among time points tested 10–40 min): 10 min
- time of return to control level in rotarod test (mice [6]; mouse, in vivo): 40 min
- novelty-induced hyperlocomotion (mice [7]): significant and dose-dependent reduction
- CPA (mice [8]; 1, 3, 5 mg/kg s.c., 6 days conditioning): did not cause CPA
- effect of MOR blockade by naloxone on lack of CPA (mice [8]; naloxone 1 mg/kg s.c. 25 min before 42B 3 mg/kg): did not affect its lack of CPA

Compound: CN(C(=O)/C=C/c1ccoc1)[C@@H]1CC[C@@]2(O)[C@H]3Cc4ccc(O)c5c4[C@@]2(CCN3CC2CC2)[C@H]1O5 [Nalfurafine]
- EC50 (MOR): 3.11 ± 0.63 nM
- Maximal Effect, MOR (MOR): 73.88 ± 2.93%
- agonist type at the MOR (MOR): partial agonists
- agonist type at the DOR (DOR): full agonism
- Emax (DOR; read-out: Maximal Effect, DOR): 129 ± 3.2%
- Maximal Effect, KOR (KOR [1]): 90.90 ± 3.25%
- agonist type at the KOR (KOR [1]; [35S]GTPγS binding): full agonists
- potency at the KOR higher than that of 42B (KOR [1]; [35S]GTPγS binding EC50 ratio, nalfurafine vs 42B): ~ 250 fold
- EC50 (NOR): 280 ± 17.7 nM
- agonist type at the NOR (NOR): full agonism
- Emax (NOR; read-out: Maximal Effect, NOR): 120 ± 2.2%
- more potent than U50,488H, inhibition of cAMP accumulation (KOR [2]): ~ 9 fold
- Emax (KOR [2]; HEK-293T, read-out: GloSensor cAMP assay Emax): 69.8 ± 1.53%
- more potent than 42B in inhibition of forskolin-stimulated adenylyl cyclase (Glosensor assay) (KOR [2]; nalfurafine vs 42B): ~ 5 X
- Emax (KOR [3]; HEK293, read-out: Tango assay Emax): 108 ± 2.6%
- G Biased factor (95% CI) (human KOR): 4.49 (1.79–11.1)
- G Biased factor (95% CI) (human KOR; listed as nalfurafine): 4.49
- more potent than 42B in the anti-scratch test (mice [5]; A50 ratio nalfurafine vs 42B): about 340 x
- A50, formalin test (mice [9]): 5.8 µg/kg
- A50, compound 48/80-induced scratching (mice [10]): 8.0 µg/kg
- rotarod performance (mice [11]; 20 μg/kg, at 30 min and 40 min following injection): small, yet significant, effects
- time of peak effect in rotarod test (mice [11]; slight lowering effect): 30 min
- CPA (mice [12]): did not produce CPA
- P-glycoprotein substrate (P-glycoprotein): P-glycoprotein substrate

Compound: C=CCN1CC[C@]23c4c5ccc(O)c4O[C@H]2C(=O)CC[C@@]3(O)[C@H]1C5 [naloxone]
- more potent in antagonizing morphine- than U50,488- or spiradoline-induced antinociception (mouse): 20–36 times
- CPA or CPP in the naloxone experiment (mice [8]; naloxone 1 mg/kg alone, U50,488 5 mg/kg as positive control): Neither naloxone (1 mg/kg) alone nor a combination of naloxone (1 mg/kg) and 42B (3 mg/kg) caused CPA or CPP

Compound: Oc1ccc2c3c1O[C@H]1c4[nH]c5c(c4C[C@@]4(O)[C@@H](C2)N(CC2CC2)CC[C@]314)C[C@@]1(O)[C@H]2Cc3ccc(O)c4c3[C@@]1(CCN2CC1CC1)[C@H]5O4 [norBNI, nor-binaltorphimine]
- effect on compound 48/80-induced scratching, alone (mice [5]; norBNI 20 mg/kg i.p. 20 h before saline): no effects
